Drawing on ChEMBL document CHEMBL3991601, “The target landscape of clinical kinase drugs” (Science, 2017), this text covers Kd for 17 compounds.

In experiment [1] the target is T1, Cytochrome c1, heme protein, mitochondrial (Homo sapiens, UniProt P08574).
T1 sequence (P08574 whole entry): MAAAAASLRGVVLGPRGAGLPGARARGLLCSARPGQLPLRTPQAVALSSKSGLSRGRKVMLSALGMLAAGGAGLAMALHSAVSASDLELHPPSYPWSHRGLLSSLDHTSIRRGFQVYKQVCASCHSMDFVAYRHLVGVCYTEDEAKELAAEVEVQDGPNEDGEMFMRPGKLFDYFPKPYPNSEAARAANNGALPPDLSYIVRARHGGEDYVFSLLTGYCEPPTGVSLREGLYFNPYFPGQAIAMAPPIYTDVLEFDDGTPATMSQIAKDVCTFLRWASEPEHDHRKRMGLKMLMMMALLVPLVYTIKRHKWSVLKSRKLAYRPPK

In experiment [2] the target is T2, Serine/threonine-protein kinase Nek2 (Homo sapiens, UniProt P51955).
T2 sequence (P51955 whole entry): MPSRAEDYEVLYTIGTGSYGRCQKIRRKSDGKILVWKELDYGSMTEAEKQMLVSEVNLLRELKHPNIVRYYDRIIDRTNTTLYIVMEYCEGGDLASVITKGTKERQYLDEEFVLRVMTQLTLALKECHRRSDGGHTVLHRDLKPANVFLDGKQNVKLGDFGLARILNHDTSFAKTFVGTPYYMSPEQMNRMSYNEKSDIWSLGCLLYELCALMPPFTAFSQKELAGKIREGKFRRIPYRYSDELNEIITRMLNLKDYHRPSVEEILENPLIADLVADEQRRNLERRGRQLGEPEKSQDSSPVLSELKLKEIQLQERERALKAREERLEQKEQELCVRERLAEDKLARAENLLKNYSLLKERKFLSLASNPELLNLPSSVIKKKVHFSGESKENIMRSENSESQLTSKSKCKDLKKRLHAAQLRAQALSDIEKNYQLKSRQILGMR

For experiment [3], the target named is Cyclin-dependent kinase 1 (Homo sapiens, UniProt P06493).
Experiment [4] deals with T3, Exosome RNA helicase MTR4 (Homo sapiens, UniProt P42285).
T3 sequence (P42285 whole entry): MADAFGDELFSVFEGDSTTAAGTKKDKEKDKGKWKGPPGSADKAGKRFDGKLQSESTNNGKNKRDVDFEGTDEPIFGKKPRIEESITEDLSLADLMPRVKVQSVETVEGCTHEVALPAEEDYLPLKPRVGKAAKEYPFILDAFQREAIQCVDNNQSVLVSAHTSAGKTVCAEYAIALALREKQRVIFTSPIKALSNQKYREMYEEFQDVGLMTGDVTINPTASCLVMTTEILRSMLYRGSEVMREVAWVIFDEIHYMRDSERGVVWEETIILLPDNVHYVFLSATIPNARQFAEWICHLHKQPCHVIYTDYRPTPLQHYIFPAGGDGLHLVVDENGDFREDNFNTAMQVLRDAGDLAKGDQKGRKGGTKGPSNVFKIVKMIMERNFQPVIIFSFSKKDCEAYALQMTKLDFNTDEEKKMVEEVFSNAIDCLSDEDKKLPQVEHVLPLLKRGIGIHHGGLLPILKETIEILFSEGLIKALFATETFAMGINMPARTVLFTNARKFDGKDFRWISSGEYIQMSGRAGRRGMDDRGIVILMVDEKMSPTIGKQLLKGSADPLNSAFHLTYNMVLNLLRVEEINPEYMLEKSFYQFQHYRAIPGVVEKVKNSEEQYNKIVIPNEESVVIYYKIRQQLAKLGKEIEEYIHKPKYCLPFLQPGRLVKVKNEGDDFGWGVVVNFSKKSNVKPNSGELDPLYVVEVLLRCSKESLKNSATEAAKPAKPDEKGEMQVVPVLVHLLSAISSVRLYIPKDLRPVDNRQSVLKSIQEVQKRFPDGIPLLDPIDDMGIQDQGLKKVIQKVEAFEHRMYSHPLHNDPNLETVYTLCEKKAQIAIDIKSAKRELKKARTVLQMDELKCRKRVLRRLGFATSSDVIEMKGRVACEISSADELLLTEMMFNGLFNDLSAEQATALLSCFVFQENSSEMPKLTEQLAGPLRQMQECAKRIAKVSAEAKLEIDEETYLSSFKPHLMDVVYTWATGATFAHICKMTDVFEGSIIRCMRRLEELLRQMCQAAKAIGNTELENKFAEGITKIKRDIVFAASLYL

Experiment [5] has as its target Mitogen-activated protein kinase 8 (Homo sapiens, UniProt P45983).
Experiment [6] concerns the target T4, cGMP-dependent protein kinase 1 (Homo sapiens, UniProt Q13976).
T4 sequence (Q13976 whole entry): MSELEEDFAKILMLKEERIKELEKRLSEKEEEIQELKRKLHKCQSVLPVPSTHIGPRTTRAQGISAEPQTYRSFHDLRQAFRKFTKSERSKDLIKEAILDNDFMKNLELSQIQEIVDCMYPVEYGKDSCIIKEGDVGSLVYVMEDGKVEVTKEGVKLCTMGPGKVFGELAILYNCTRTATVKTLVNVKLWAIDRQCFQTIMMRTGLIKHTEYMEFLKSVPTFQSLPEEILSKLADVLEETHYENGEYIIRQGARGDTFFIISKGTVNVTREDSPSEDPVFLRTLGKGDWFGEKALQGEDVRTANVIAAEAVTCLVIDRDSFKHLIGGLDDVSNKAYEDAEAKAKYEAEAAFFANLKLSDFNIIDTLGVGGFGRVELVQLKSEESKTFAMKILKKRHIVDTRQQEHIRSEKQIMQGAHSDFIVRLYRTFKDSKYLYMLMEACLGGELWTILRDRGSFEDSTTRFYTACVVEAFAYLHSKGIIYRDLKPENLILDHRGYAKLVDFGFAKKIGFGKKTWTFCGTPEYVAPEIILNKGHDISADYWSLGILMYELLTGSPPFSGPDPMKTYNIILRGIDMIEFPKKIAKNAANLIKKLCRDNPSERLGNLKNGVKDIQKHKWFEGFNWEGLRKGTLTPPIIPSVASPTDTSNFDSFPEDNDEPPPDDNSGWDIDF

The Kd is the equilibrium constant for the complex coming apart.

Structures are written as SMILES. Active and inactive are the calls of the source.
Further: in the data inactive means no Kd found up to 30 µM.

Chain of Cyclin-dependent kinase 1 (P06493 whole entry): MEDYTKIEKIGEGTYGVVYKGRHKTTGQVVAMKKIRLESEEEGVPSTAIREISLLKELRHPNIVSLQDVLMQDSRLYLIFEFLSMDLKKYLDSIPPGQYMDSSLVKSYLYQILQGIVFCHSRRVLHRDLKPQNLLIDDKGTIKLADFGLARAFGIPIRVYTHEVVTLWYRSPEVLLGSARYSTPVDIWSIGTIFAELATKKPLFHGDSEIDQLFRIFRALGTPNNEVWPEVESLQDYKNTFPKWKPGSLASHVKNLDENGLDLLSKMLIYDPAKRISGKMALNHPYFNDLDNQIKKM
Chain of Mitogen-activated protein kinase 8 (P45983 whole entry): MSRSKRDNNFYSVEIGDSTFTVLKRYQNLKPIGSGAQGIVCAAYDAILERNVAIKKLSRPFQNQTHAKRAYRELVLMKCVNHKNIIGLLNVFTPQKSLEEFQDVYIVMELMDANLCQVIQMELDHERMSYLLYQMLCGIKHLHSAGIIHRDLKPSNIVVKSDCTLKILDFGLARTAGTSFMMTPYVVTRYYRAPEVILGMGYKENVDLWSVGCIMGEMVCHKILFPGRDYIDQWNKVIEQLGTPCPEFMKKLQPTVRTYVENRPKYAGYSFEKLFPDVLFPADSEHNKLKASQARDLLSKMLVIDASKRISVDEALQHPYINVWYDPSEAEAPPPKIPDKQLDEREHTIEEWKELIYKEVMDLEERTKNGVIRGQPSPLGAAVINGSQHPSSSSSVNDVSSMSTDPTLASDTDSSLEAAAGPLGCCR

On to `CC[C@@H]1C(=O)N(C)c2cnc(Nc3ccc(C(=O)N[C@H]4CC[C@H](N5CCN(CC6CC6)CC5)CC4)cc3OC)nc2N1C(C)C` [VOLASERTIB], for which the Kd in experiment [1], in experiment [2], in experiment [3], in experiment [4], in experiment [5] and in experiment [6] was > 30 µM (inactive) in each case.
Consider `Cc1cc(-c2cc(O)ccc2Cl)cc2nnc(Nc3ccc(OCCN4CCCC4)cc3)nc12`, for which the Kd in experiment [1], in experiment [2], in experiment [3], in experiment [4], in experiment [5] and in experiment [6] was > 30 µM (inactive) each time.
Consider `CCn1c(=O)c(-c2cc[nH]n2)cc2c(C)nc(N)nc21` [VOXTALISIB], for which the Kd in experiment [1], in experiment [2], in experiment [3], in experiment [4], in experiment [5] and in experiment [6] was > 30 µM (inactive) each time.
As to `Cn1ncc(Cl)c1-c1cc(C(=O)N[C@H](CN)Cc2cccc(F)c2)sc1Cl` [AFURESERTIB], the Kd in experiment [1], in experiment [2], in experiment [3], in experiment [4], in experiment [5] and in experiment [6] was > 30 µM (inactive) throughout.
Take `Cc1cc2c(F)c(Oc3ncnn4cc(OC[C@@H](C)OC(=O)[C@H](C)N)c(C)c34)ccc2[nH]1` [BRIVANIB ALANINATE]: the Kd in experiment [1], in experiment [2], in experiment [3], in experiment [4], in experiment [5] and in experiment [6] was > 30 µM (inactive) in each case.
As for `CN1CCC(CNc2ccc3ncc(-c4cccc(OC(F)(F)F)c4)n3n2)CC1` [SGI-1776], the Kd in experiment [1], in experiment [2], in experiment [3], in experiment [4], in experiment [5] and in experiment [6] was > 30 µM (inactive) in each case.
Turning to `CC[C@H](Nc1ncnc2[nH]cnc12)c1nc2cccc(F)c2c(=O)n1-c1ccccc1` [IDELALISIB], the Kd in experiment [1], in experiment [2], in experiment [3], in experiment [4], in experiment [5] and in experiment [6] was > 30 µM (inactive) each time.
With `COC(=O)N[C@@H](C)CNc1nccc(-c2cn(C(C)C)nc2-c2cc(Cl)cc(NS(C)(=O)=O)c2F)n1` [ENCORAFENIB], the Kd is > 30 µM (inactive) in experiment [1]; > 30 µM (inactive) in experiment [2]; > 30 µM (inactive) in experiment [3]; > 30 µM (inactive) in experiment [4]; 1.87 µM (active) in experiment [5]; > 30 µM (inactive) in experiment [6].
For the compound `O=c1sn(-c2cccc3ccccc23)c(=O)n1Cc1ccccc1` [TIDEGLUSIB], the Kd in experiment [1], in experiment [2], in experiment [3], in experiment [4], in experiment [5] and in experiment [6] was > 30 µM (inactive) each time.
For the compound `O=C(c1ccc(F)c(F)c1Nc1ccc(I)cc1F)N1CC(O)([C@@H]2CCCCN2)C1` [COBIMETINIB], the Kd in experiment [1], in experiment [2], in experiment [3], in experiment [4], in experiment [5] and in experiment [6] was > 30 µM (inactive) each time.
Turning to `C1=C/COCc2cc(ccc2OCCN2CCCC2)Nc2nccc(n2)-c2cccc(c2)COC/1` [PACRITINIB], the Kd in experiment [1] was > 30 µM (inactive); in experiment [2], > 30 µM (inactive); in experiment [3], > 30 µM (inactive); in experiment [4], > 30 µM (inactive); in experiment [5], 1.96 µM (active); in experiment [6] it was 1.52 µM (active).
In the case of `Cc1ccc(S(=O)(=O)Nc2nc3ccccc3nc2Nc2ccc3nsnc3c2)cc1`, the Kd in experiment [1], in experiment [2], in experiment [3], in experiment [4], in experiment [5] and in experiment [6] was > 30 µM (inactive) throughout.
For `Cn1cc(-c2ccc(F)c(C(F)(F)F)c2)nc1C1CCN(c2ncnc3[nH]ncc23)CC1` [LY-2584702], the Kd in experiment [1], in experiment [2], in experiment [3], in experiment [4], in experiment [5] and in experiment [6] was > 30 µM (inactive) in each case.
In the case of `O=C(Nc1ccc(-c2ccnc(Nc3ccc(N4CCOCC4)cc3)n2)cc1)C1CCCN1` (configuration not stated) [XL-019], the Kd was > 30 µM (inactive) in experiment [1]; > 30 µM (inactive) in experiment [2]; > 30 µM (inactive) in experiment [3]; > 30 µM (inactive) in experiment [4]; 0.844 µM (active) in experiment [5]; > 30 µM (inactive) in experiment [6].
As to `CNC(=O)CN1CCC(Oc2cc3c(Nc4cccc(Cl)c4F)ncnc3cc2OC)CC1` [SAPITINIB], the Kd in experiment [1], in experiment [2], in experiment [3], in experiment [4], in experiment [5] and in experiment [6] was > 30 µM (inactive) throughout.
Regarding `Cc1cc([C@@H](C)Nc2ccccc2C(=O)O)c2nc(N3CCOCC3)cc(=O)n2c1` [AZD-6482], the Kd in experiment [1], in experiment [2], in experiment [3], in experiment [4], in experiment [5] and in experiment [6] was > 30 µM (inactive) each time.
Take `CCN1CCN(Cc2ccc(-c3cc4c(N[C@H](C)c5ccccc5)ncnc4[nH]3)cc2)CC1` [AEE-788]: the Kd in experiment [1], in experiment [2], in experiment [3], in experiment [4], in experiment [5] and in experiment [6] was > 30 µM (inactive) in each case.
